assay: recombinant UMI read abundance after kanamycin selection (control-corrected) (log10(CPM+1)); higher = more efficient recombination; extreme values may be limits of the assay; sequences stand for … in AGTGCAGAGAAAATCGGCCAGTTTTCTCTGCCTGCAGTCCGCATGCCGTGGGACCCCTTGGGTTCTAACCTGTTGCCTAGATTTATGCAGCGGACTGCCTTTCTCCCAAAGTGATAAACCGG…AGGTTGGTTTCACT; site = the 11-nt donor
Procedure, shortened: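 In Escherichia coli, a pool of donor and donor-binding-loop pairs, each with a 12-nt UMI, was tested for the IS621 bridge recombinase. Plating was on IPTG (0.07 mM) plus kanamycin, or without selection, in two replicates. Recombinant UMIs were amplified by PCR across the donor–target junction and sequenced, and counts were reported as log10(CPM+1) after averaging and control-derived scaling.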
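Further: IS621 bridge recombinase in Escherichia coli cells against a fixed T5 target plasmid.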

Point of comparison: “CCAGCTGCATGGACCGGTTTTCCCGGTAATCCGTATTTGAT (site CCAGATGCTAT)”, “recombinant UMI read abundance (log10)” value 0.00428. Against it:
- CCACTATCATGGACCGGTTTTCCCGGTAATCCGTATTTGAC (site CTAGTATCTGT) — within 0.2 log units, 0
- CCAGAGACATGGACCGGTTTTCCCGGTAATCCGTATTTGCG (site ACAGAGACTCG) — higher, 0.249
- CCAGAGACATGGACCGGTTTTCCCGGTAATCCGTATTTGCG (site CCAGAGACTCG) — higher, 1.76
- CCAGAGACATGGACCGGTTTTCCCGGTAATCCGTATTTGCG (site GCAGAGACTCG) — within 0.2 log units, 0.0188
- CCAGAGACATGGACCGGTTTTCCCGGTAATCCGTATTTGCG (site TCAGAGACTCG) — higher, 0.381
- CCAGCGCCATGGACCGGTTTTCCCGGTAATCCGTATTTGTG (site CAAGCGCCTCA) — within 0.2 log units, 0.0258
- CCAGCGCCATGGACCGGTTTTCCCGGTAATCCGTATTTGTG (site CCAGCGCCTCA) — within 0.2 log units, 0.045
- CCAGCGCCATGGACCGGTTTTCCCGGTAATCCGTATTTGTG (site CGAGCGCCTCA) — within 0.2 log units, 0.0423
- CCAGCGCCATGGACCGGTTTTCCCGGTAATCCGTATTTGTG (site CTAGCGCCTCA) — within 0.2 log units, 0
- CCAGCTGCATGGACCGGTTTTCCCGGTAATCCGTATTTGAT (site CCAGCTGCTAT) — higher, 1.7
- CCAGCTGCATGGACCGGTTTTCCCGGTAATCCGTATTTGAT (site CCAGGTGCTAT) — within 0.2 log units, 0.00694
- CCAGCTGCATGGACCGGTTTTCCCGGTAATCCGTATTTGAT (site CCAGTTGCTAT) — within 0.2 log units, 0.00911
- CCAGGGCCATGGACCGGTTTTCCCGGTAATCCGTATTTGTG (site CCAGGGCCTCA) — within 0.2 log units, 0.00753
- CCAGGTCCATGGACCGGTTTTCCCGGTAATCCGTATTTGAT (site CCAGGTACTAT) — within 0.2 log units, 0
- CCAGGTCCATGGACCGGTTTTCCCGGTAATCCGTATTTGAT (site CCAGGTCCTAT) — higher, 0.341
- CCAGGTCCATGGACCGGTTTTCCCGGTAATCCGTATTTGAT (site CCAGGTGCTAT) — within 0.2 log units, 0
- CCAGGTCCATGGACCGGTTTTCCCGGTAATCCGTATTTGAT (site CCAGGTTCTAT) — within 0.2 log units, 0
- CCAGGTGCATGGACCGGTTTTCCCGGTAATCCGTATTTGAA (site CCAGGTGCTAT) — within 0.2 log units, 0.00736
- CCAGGTGCATGGACCGGTTTTCCCGGTAATCCGTATTTGAA (site CCAGGTGCTCT) — higher, 0.218
- CCAGGTGCATGGACCGGTTTTCCCGGTAATCCGTATTTGAA (site CCAGGTGCTGT) — within 0.2 log units, 0
- CCAGGTGCATGGACCGGTTTTCCCGGTAATCCGTATTTGAA (site CCAGGTGCTTT) — higher, 1.73
- CCAGGTGCATGGACCGGTTTTCCCGGTAATCCGTATTTGAC (site CCAGGTGCTAT) — within 0.2 log units, 0.0299
- CCAGGTGCATGGACCGGTTTTCCCGGTAATCCGTATTTGAC (site CCAGGTGCTCT) — within 0.2 log units, 0.00976
- CCAGGTGCATGGACCGGTTTTCCCGGTAATCCGTATTTGAC (site CCAGGTGCTGT) — higher, 0.637
- CCAGGTGCATGGACCGGTTTTCCCGGTAATCCGTATTTGAC (site CCAGGTGCTTT) — within 0.2 log units, 0.00791
- CCAGGTGCATGGACCGGTTTTCCCGGTAATCCGTATTTGGT (site CCAGGTGCTAA) — within 0.2 log units, 0.0181
- CCAGGTGCATGGACCGGTTTTCCCGGTAATCCGTATTTGGT (site CCAGGTGCTAC) — within 0.2 log units, 0.188
- CCAGGTGCATGGACCGGTTTTCCCGGTAATCCGTATTTGGT (site CCAGGTGCTAG) — within 0.2 log units, 0
- CCAGGTGCATGGACCGGTTTTCCCGGTAATCCGTATTTGGT (site CCAGGTGCTAT) — higher, 0.541
- CCAGTAGCATGGACCGGTTTTCCCGGTAATCCGTATTTGAC (site CCAGTAGCTGT) — higher, 2.06
- CCAGTAGCATGGACCGGTTTTCCCGGTAATCCGTATTTGAC (site CTAGTATCTGT) — within 0.2 log units, 0
- CCAGTATCATGGACCGGTTTTCCCGGTAATCCGTATTTGCA (site ACAGTATCTTG) — higher, 1.07
- CCAGTATCATGGACCGGTTTTCCCGGTAATCCGTATTTGCA (site CCAGTATCTTG) — higher, 2.21
- CCAGTATCATGGACCGGTTTTCCCGGTAATCCGTATTTGCA (site GCAGTATCTTG) — within 0.2 log units, 0
- CCAGTATCATGGACCGGTTTTCCCGGTAATCCGTATTTGCA (site TCAGTATCTTG) — within 0.2 log units, 0
- CCAGTGACATGGACCGGTTTTCCCGGTAATCCGTATTTGGT (site CCAGTGACTAC) — within 0.2 log units, 0

Source: the supplement of paper PMC11208160
